Experiments:
APOE*3Leiden mice [1] = test: Hepatic VLDL-TG production, apoB production and VLDL composition (Triton WR1339 method); format: in vivo; settings: 1% PS diet
Protocol: (§1) Plasma parameters: Tail blood samples were collected in EDTA-coated cups, or in paraoxon-coated capillaries to prevent lipolysis as described in Zambon et al. 1993 (Zambon et al. 1993. J. Lipid Res. 34:1021-1028). Plasma lipid parameters were determined using commercial kits for total cholesterol (C) Chol R1 from Roche Diagnostics, Mannheim, Germany), non-esterified free fatty acids (FFA) (NEFA-C; Wako chemicals, Neuss, Germany), Total triglycerides (TG) (Triglyceride GPO-Trinder; Sigma, St. Louis, Mo.), β-hydroxybutyrate (β-HB; Sigma) and ALAT (Reflotron GPT; Roche). Serum amyloid A (SAA) was measured by ELISA (Biosource, Nivelles, Belgium) and fibrinogen by sandwich ELISA, as described in Koopman et al., 2005 (Koopman et al. 2005. Fibrinol Proteol 11:19). For lipoproteins fractionation, groupwise-pooled plasma was size-fractionated by fast protein liquid chromatography (FPLC) on a Superose 6 column (Äkta; Amersham Pharmacia Biotech, Uppsala, Sweden). Fractions were assayed for total C and TG as described. Hepatic VLDL-TG production: The rate of hepatic VLDL-TG production, de novo apoB secretion, and VLDL composition were determined in overnight-fasted mice. Mice were anaesthetized with vetranquil/fentanyl/midazolam i.p., and injected i.v. with 0.1 ml PBS containing 100 μCi Tran^35S-label™ (ICN Biomedicals, Irvine, Calif.) to measure the de novo apoB synthesis. After 30 min, the animals received a Triton WR1339 injection (Tyloxapol, Sigma; 500 mg/kg body weight in 100 μl saline) to prevent systemic lipolysis of newly-secreted hepatic VLDL-TG (Aalto-Setala et al. 1992. J. Clin. Invest 90:1889-1900.27) Blood samples were drawn at 0, 15, 30, 60, and 90 min after Triton WR1339 injection and plasma TG concentrations were determined. After 90 min, the animals were sacrificed and blood was collected by retro-orbital bleeding for isolation of VLDL. VLDL composition: VLDL particles (d<1.019) were separated from other lipoproteins in plasma by density gradient ultra-centrifugation, as described in Jong et al., 1996 (Jong et al. 1996. Arterioscler. Thromb. Vasc. Biol. 16:934-940). Protein content of the VLDL fraction was determined by Lowry's assay (Lowry et al., 1951. J. Biol. Chem. 193:265-275), and TG and total C were determined as described above. Phospholipids and free cholesterol were determined using standard commercial kits (Wako Chemicals, Neuss, Germany). The ^35S-apoB content of VLDL was measured after selective precipitation of apoB with isopropanol as described elsewhere (Li et al. 1996 J. Lipid Res. 37:210-220; Pietzsch et al. 1995. Biochim. Biophys. Acta 1254:77-88). In vivo clearance of VLDL-like TG-rich particles: To determine whether 1% PS accelerates the clearance of TG-rich lipoproteins from plasma, we used radiolabeled emulsion particles as a tool. VLDL-like emulsion particles containing 200 μCi of [^3H]triolein and 20 μCi of [^14C]cholesteryl oleate were prepared and characterized as described in Rensen et al. 1997 (Rensen et al., 1997. J. Lipid Res. 38:1070-1084). Fed mice were anaesthetized as described above and laparotomy was performed. […] After taking the last liver and blood sample, the remainder of the liver, heart, spleen, hind limb muscle, and gonadal, perirenal and intestinal white adipose tissues were harvested. Lipids were extracted overnight at 60° C. in 500 μL of Solvable™, and radioactivity was counted as described in Rensen et al., 1997 (supra). RNA isolation and RT-PCR: Livers from 4 h-fasted mice fed 1% PS-containing diet or control Western-type diet for 5 weeks were removed immediately after sacrifice, flushed with cold 0.9% NaCl and snap frozen in liquid nitrogen. Total RNA was isolated as described by Chomczynski and Sacchi (Chomczynski, P. and Sacchi, N. 1987. Anal. Biochem. 162:156-159) by use of RNA-Bee™ (Campro Scientific, Berlin, Germany). cDNA synthesis was performed according to Bloks et al (Bloks et al., 2001. J. Lipid Res. 42:41-50). […]

APOE*3Leiden mice [2] = test: In vivo clearance of VLDL-like TG-rich emulsion particles; settings: 1% PS diet
Protocol: as §1, with “(supra).” for “(supra). RNA isolation and RT-PCR: Livers from 4 h-fasted mice fed 1% PS-containing diet or control Western-type diet for 5 weeks were removed immediately after sacrifice, flushed with cold 0.9% NaCl and snap frozen in liquid nitrogen. Total RNA was isolated as described by Chomczynski and Sacchi (Chomczynski, P. and Sacchi, N. 1987. Anal. Biochem. 162:156-159) by use of RNA-Bee™ (Campro Scientific, Berlin, Germany). cDNA synthesis was performed according to Bloks et al (Bloks et al., 2001. J. Lipid Res. 42:41-50).”

APOE*3Leiden mice [3] = test: Liver lipid levels, liver appearance and liver histology; format: in vivo; settings: 1% PS diet; for Fat deposits / lipid-filled vacuoles in liver cells (HPS-stained sections): compared to controls
APOE*3Leiden mice [4] = test: Plasma ALAT, SAA and fibrinogen (plasma inflammation markers); format: in vivo; settings: 1% PS diet
Protocol: as §1

## CCCCCCCCCCCCCC[C@@H](O)[C@@H](O)[C@@H](N)CO [PS, phytosphingosine]
APOE*3Leiden mice [1]; 5 weeks
  VLDL particle composition: phospholipid: 7.57 ± 1.13 μmol/mg VLDL protein
  VLDL particle composition: total cholesterol: 11.94 ± 2.16 μmol/mg VLDL protein
  VLDL particle composition: triglycerides: 36.93 ± 7.17 μmol/mg VLDL protein
  VLDL total cholesterol, % Δ vs control: −51%
  apoB production rate, % Δ vs control: did not differ and n.s.
APOE*3Leiden mice [1]; 5 weeks, overnight-fasted
  VLDL-TG production rate: 3.63 ± 0.52 μmol TG/h
  apoB production rate: 13.47 ± 2.45 ×10^4 dpm/ml/h
APOE*3Leiden mice [1]; p<0.05
  Decrease of total C in VLDL particles vs control: 51%
APOE*3Leiden mice [2]
  Uptake of [^14C]cholesteryl oleate or [^3H]TG-derived radioactivity by peripheral muscle and adipose tissues: No effects
APOE*3Leiden mice [2]; 5 weeks, fed mice
  Plasma clearance of [^14C]cholesteryl oleate, t1/2: 39.5 ± 5.3 min
  Serum clearance of [^3H]TG, t1/2: 4.7 ± 0.3 min
APOE*3Leiden mice [2]; at 10 min and 20 min after injection
  [^3H]TG uptake in the liver: increased significantly
APOE*3Leiden mice [2]; at 20 min
  Liver uptake of [^14C]cholesteryl oleate, change vs control: +60%
APOE*3Leiden mice [3]; 5 weeks
  Liver cholesteryl ester, % Δ vs control: −61%
  Liver free cholesterol, % Δ vs control: −11%
  Liver triglycerides, % Δ vs control: −56%
APOE*3Leiden mice [3]; 5 weeks, 4 h-fasted
  Liver cholesteryl ester: 5.20 ± 0.79 μg/mg protein
  Liver free cholesterol: 6.95 ± 0.78 μg/mg protein
  Liver triglycerides: 15.28 ± 3.84 μg/mg protein
APOE*3Leiden mice [3]
  Fat deposits / lipid-filled vacuoles in liver cells (HPS-stained sections): less lipid-filled vacuoles
APOE*3Leiden mice [3]; listed as phytosphingosine
  Fat deposits / lipid-filled vacuoles in liver cells (HPS-stained sections): absence of such fat deposits
APOE*3Leiden mice [3]; control livers enlarged and yellowish
  Liver appearance at autopsy: of normal size, and had a dark-red appearance
APOE*3Leiden mice [3]; p<0.05
  Decrease of liver Free C vs control: 11%
  Decrease of liver cholesteryl esters vs control: 61%
APOE*3Leiden mice [4]; 5 weeks
  Plasma ALAT, % Δ vs control: −79%
  Plasma SAA, % Δ vs control: −74%
APOE*3Leiden mice [4]; 5 weeks, 4 h-fasted
  Plasma ALAT: 41 ± 21 U/l
  Plasma SAA: 3 ± 0.3 µg/mL
  Plasma fibrinogen: 2.3 ± 0.7 mg/mL
APOE*3Leiden mice [4]; p<0.05
  Decrease of ALAT levels vs control: 79%
  Decrease of SAA levels vs control: 74%
